This note sets out measurements from patent US4923965A, “Tripeptides of N^3 -4-methoxyfumaryl-L-2,3-diaminopropanoic acid” (Politechnika Gdanska, priority 1988, dated 1990).

In brackets after ≈: the same amount, converted by molar mass. Where a name gives a salt, the structure may show the parent alone.

Test [1] in a line: MIC stated in the synthesis examples. In kind it is cell-based. Particulars: strain and medium not given.
Test [2] has as its system Candida albicans ATCC 26278. Put plainly: minimum inhibitory concentration for elected strain. It counts as cell-based. On the procedure: The in vitro activity has been evaluated by the method of serial dilutions in parallel on solid YNB medium and on YNB w/o+AN medium, where the abbreviation AN means 200 mg of sodium glutamate, 10 mg of L-histidine, 20 mg of DL-methionine, 20 mg DL-tryptophane, 10 g of glucose and 15 g of agar-agar per 1 liter of the YNB medium. The application of the medium modified in such a manner was made necessary by the known phenomenon of lower biological activity in the media containing ammonium sulphate as a source of nitrogen.

Consider `COC(=O)/C=C/C(=O)NC[C@H](N)C(=O)N[C@@H](CCSC)C(=O)N[C@@H](C)C(=O)O` [Example I, N^3-4-methoxyfumaryl-L-2,3-diaminopropanoyl-L-methionyl-L-aniline], for which the MIC in test [1] was 0.1 µg/mL (≈ 0.239 µM). Still for that read-out and setting: the value for `COC(=O)/C=C/C(=O)NC[C@H](NC(=O)[C@@H](N)CCSC)C(=O)N[C@@H](CCSC)C(=O)O` [VIII, N^2 -L-methionyl, n^3-4-methoxyfumaryl-L-2,3-diaminopropanoyl-L-methonine hydrochloride] was 0.8 µg/mL. For the compound `CCC[C@H](NC(=O)[C@@H](N)CCSC)C(=O)N[C@@H](CNC(=O)/C=C/C(=O)OC)C(=O)O` [XVI, N^2 -L-methionyl-L-norvalyl, N^3-4-methoxyfumaryl-L-2,3-diaminopropanoic hydrochloride], in test [2], the “minimum inhibitory concentration, MIC” value turned out to be 0.4 µg/mL. For the same compound, the MIC in test [1] was 0.8 µg/mL. For the compound `CCC[C@H](NC(=O)[C@@H](N)CCCCN)C(=O)N[C@@H](CNC(=O)/C=C/C(=O)OC)C(=O)O` [XXII, N^2 --L-lysyl-L-norvalyl-N^3-4-methoxyfumaryl-L-2,3-diaminopropanoic dihydrochloride], the “minimum inhibitory concentration, MIC” value in test [2] was determined as 0.02 µg/mL.

As a reminder, the MIC is the least concentration at which growth counts as inhibited. A lower MIC goes with inhibition by little substance.
